# Source: US4673684A, “Amide derivatives and 5-lipoxygenase inhibitors containing the same as an active ingredient” (Terumo Corporation, priority 1984, dated 1987)
# Molecular target: T1, 5-lipoxygenase (Mus musculus, UniProt P48999)
# T1 construct: The supernatant is used as a 5-lipogenase enzyme solution; endogenous in cells
# T1 sequence (P48999 1-674): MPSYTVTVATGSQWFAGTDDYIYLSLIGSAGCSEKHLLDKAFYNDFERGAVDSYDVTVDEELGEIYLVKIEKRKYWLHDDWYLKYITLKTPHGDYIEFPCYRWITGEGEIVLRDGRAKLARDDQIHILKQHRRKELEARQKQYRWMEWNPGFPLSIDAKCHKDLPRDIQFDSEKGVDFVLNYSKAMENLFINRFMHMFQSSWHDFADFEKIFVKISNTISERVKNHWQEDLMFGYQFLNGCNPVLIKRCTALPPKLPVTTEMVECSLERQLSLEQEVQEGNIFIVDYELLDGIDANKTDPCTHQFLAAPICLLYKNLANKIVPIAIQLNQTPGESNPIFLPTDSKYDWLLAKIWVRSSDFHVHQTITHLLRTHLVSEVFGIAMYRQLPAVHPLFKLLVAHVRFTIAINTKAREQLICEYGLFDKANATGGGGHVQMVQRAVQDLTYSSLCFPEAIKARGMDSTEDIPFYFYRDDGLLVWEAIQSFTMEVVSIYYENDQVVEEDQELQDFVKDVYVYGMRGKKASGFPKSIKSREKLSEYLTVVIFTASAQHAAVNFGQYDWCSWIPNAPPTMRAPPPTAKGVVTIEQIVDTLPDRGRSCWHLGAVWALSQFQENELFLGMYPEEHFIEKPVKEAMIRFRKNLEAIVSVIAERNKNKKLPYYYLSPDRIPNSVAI
# Assay: 5-Lipoxygenase-inhibiting Activity (decrease in 5-HETE and LTB4 formed from radiolabelled arachidonic acid, enzyme solution from mouse mastcytoma cells P-815)
# Assay type: biochemical
# Details: 5-HETE and LTB4 formation; mouse mastcytoma P-815 enzyme solution; 37° C., 5 min; pH 7.4; with indomethacin; read-out: 50% Inhibitory concentration IC50
# Method: Mouse mastcytoma cells P-815 are diluted in a culture solution, containing 90% Eagle Basic Medium (manufactured by Gibco Laboratories) to 5×10^4 cells/ml. The diluted solution is cultivated with shaking in air at 37° C. for 48 hours. Then, the culture solution is cooled with ice and centrifuged to collect the cells. The cells are suspended in a phosphate buffer solution at pH 7.4 at a concentration of 2×10^7 cells/ml. The suspension is treated in a ultrasonic cell disintegrater and then centrifuged at 10,000 r.p.m. for 10 min. The supernatant is used as a 5-lipogenase enzyme solution. In test tubes are placed 20 μl of radiolabelled arachidonic acid ([…]), indomethacin (2×10^-8 mol) and an amide derivative to be tested, respectively. To each of the test tubes are added 0.45 ml of a phosphate buffer solution, 0.45 ml of the above-prepared suspension, 0.45 ml of the above-prepared enzyme solution and 0.1 ml of 8 mM CaCl2 (calcium chloride). The mixture is reacted at 37° C. for 5 min. After cooled with ice, 60 μl of 1N-HCl (hydrochloric acid is added to the reaction mixture, which is then extracted with 8 ml of ethyl acetate. The extract is concentrated, and the concentrate is developed by spotting on a silica gel thin layer plate (Merck 60F 254). Measurement of the inhibitory activity is made by collecting fractions corresponding to lipoxygenase products 5-HETE (5(s)-hydroxy-6,8,11,14-eicosatetraenic acid) and LTB4 (leucotriene B4) and determining the radioactivity by a liquid scintillation counter. The lipoxygenase inhibiting activity is determined by decrease in the amount of the above-mentioned 5-lipoxygenaseproducts. […] 50% inhibitory concentration or 30% inhibitory concentration as indicated in the table means the concentration of an amide derivative required for reducing the amount of the above-mentioned 5-lipoxygenase products (5-HETE and LTB4) to 50% or 30% of the amount when the amount of 5-HETE and LTB4 produced in the absenced of the amide derivative is 100%.
row,Structure (SMILES),IC50 [nM]
1,"COc1cc(/C=C/C=C/C(=O)NCCCN2CCN(C(c3ccccc3)c3ccc(Cl)cc3)CC2)ccc1O (centres unmarked) [Example 39, N-(p-chlorobenzhydryl)-N'-[3-{5-(3-methoxy-4-hydroxyphenyl)-2,4-pentadienoyl)aminopropyl]piperazine]",100
2,COc1cc(/C=C/C=C/C(=O)NCCN2CCN(C)CC2)ccc1O [Example 40],10000
3,"COc1cc(/C=C/C=C/C(=O)NCc2c(COC(=O)c3ccc(C)cc3)cnc(C)c2O)ccc1O [Example 41, 4-[5-(3-methoxy-4-hydroxyphenyl)-2,4-pentadienoyl]-aminomethyl-3-hydroxy-2-methyl-5-toluoxymethylpyridine]",200
4,"COc1cc(/C=C/C=C/C(=O)NCCN2CCN(C(=O)c3ccccc3N)CC2)ccc1O [Example 42, N-(o-aminobenzoyl)-N'-[{5-(3-methoxy-4-hydroxyphenyl)-2,4-pentadienoyl}aminoethyl]piperazine]",2000
5,"COc1cc(/C=C/C=C/C(=O)NCCCCNC(=O)c2ccccc2N)ccc1O [Example 43, N-5-(3-methoxy-4-hydroxy)phenyl-2,4-pentadienoyl-N'-(2-amino)-benzoyl putrescine]",300
6,"O=C(/C=C/C=C/c1ccc(O)c(O)c1)NCCCN1CCN(C(c2ccccc2)c2ccccc2)CC1 [Example 44, N-benzhydryl-N'-[[5-{3,4-dihydroxyphenyl)-2,4-pentadienoyl}aminopropyl]piperazine]",80
7,"O=C(/C=C/C=C/c1ccc(O)c(O)c1)NCCCN1CCN(C(c2ccccc2)c2ccc(Cl)cc2)CC1 (centres unmarked) [Example 45, N-(p-chlorobenzhydryl)-N'-[{5-(3,4-dihydroxyphenyl)-2,4-pentadienoyl}-aminopropyl]piperazine]",60
8,Cc1ccc(C(=O)OCc2cnc(C)c(O)c2CNC(=O)/C=C/C=C/c2ccc(O)c(O)c2)cc1 [Example 46],80
9,"COc1ccc(/C=C/C=C/C(=O)NCCCN2CCN(C(c3ccccc3)c3ccccc3)CC2)cc1OC [Example 47, N-[3-[5-(3,4-dimethoxyphenyl)-2,4-pentadienoyl]-aminopropyl]-N'-benzhydrylpiperazine]",4000
10,"COc1ccc(/C=C/C=C/C(=O)NCCN2CCN(C(=O)c3ccccc3N)CC2)cc1OC [Example 48, N-(o-aminobenzoyl)-N'-[{5-(3,4-dimethoxyphenyl)-2,4-pentadienoyl}aminoethyl]piperazine]",6000
11,COc1cc(/C=C/C(=O)NCCN2CCN(C(c3ccccc3)c3ccc(Cl)cc3)CC2)cc(OC)c1O (centres unmarked) [Example 49],40
12,"COc1cc(/C=C/C(=O)NCc2c(CO)cnc(C)c2O)cc(OC)c1O [Example 50, 4-[3-(3,5-dimethoxy-4-hydroxyphenyl)-2-propenoyl]aminomethyl-3-hydroxy-5-hydroxymethyl-2-methylpyridine]",6000
13,"COc1cc(/C=C/C(=O)Nc2ccccc2C(=O)O)cc(OC)c1O [Example 51, N-[3-(3,5-dimethox-4-hydroxyphenyl)propenoyl]anthranilic acid]",1000
14,"COc1cc(/C=C/C(=O)NCCN2CCN(C(c3ccccc3)c3ccccc3)CC2)cc(OC)c1OC [Example 52, N-benzhydryl-N'-[3-(3',4',5'-trimethoxy)phenyl-2-propenoyl]aminoethylpiperazine]",10000
15,"COc1cc(/C=C/C=C/C(=O)NCCN2CCN(C(c3ccccc3)c3ccccc3)CC2)cc(OC)c1O [Example 53, N-[2-[5-(3,5-dimethoxy-4-hydroxyphenyl)-2,4-pentadienoyl]aminoethyl]-N'-benzhydrylpiperazine]",20
16,"COc1cc(/C=C/C=C/C(=O)NCCN2CCN(C(c3ccccc3)c3ccc(Cl)cc3)CC2)cc(OC)c1O (centres unmarked) [Example 54, N-(p-chlorobenzhydryl)-N'-[2-{5-(3,5-dimethoxy-4-hydroxyphenyl)-2,4-pentadienoyl}aminoethyl]piperazine]",20
17,COc1cc(/C=C/C=C/C(=O)NCCCN2CCN(C(c3ccccc3)c3ccccc3)CC2)cc(OC)c1O [Example 55],30
